The subject of one assay is BT474. The assay is described as follows: Cell proliferation, BT474. Type of assay: cell-based. Here is the method: (§1) Cell Proliferation: Cell proliferation was determined using a Hoechst stain (Sigma, St. Louis, Mo.) to quantify DNA. 5,000 cells of the designated cell line were plated in 96 well plates and treated the next day, designated as time point 0, with the indicated concentration of the specified compound maintained for the duration of the assay. At the indicated time points the media was removed and plated frozen at −80° C. Double distilled H2O was then added and the plates were incubated at 37° C. for 1 hour. After 1 hour the plates were frozen at −80° C. After freezing the plates were thawed and Hoechst stain was diluted 1:1000 in THE buffer (10 mM Tris, 2M NaCl, 1 mM Na2EDTA). The final fluorescence was measured on the Victor X2 plate reader at 355/460 nm, and cell proliferation was determined with the formula: % Cell Proliferation=100×(Sample fluorescence−background fluorescence)/(Control fluorescence−background fluorescence).

The next assay has as its system MCF7. As to the kind of experiment: Cell proliferation, MCF7. Type of assay: cell-based. Conditions: MCF7. The protocol: as §1

As for `CCCn1c(NC(=O)[C@H]2CCCN(c3cnccn3)C2)nc2ccccc21` [HS-72, (S)—N-(1-propyl-1H-benzo[d]imidazol-2-yl)-1-(pyrazin-2-yl)piperidine-3-carboxamide], the cell proliferation entry in the assay on BT474 and with MCF7 was “inhibits proliferation” each time. Further, the “cell proliferation, combination with HS-10” value in the assay on MCF7 is listed as “additive effect”; in the assay with MCF7 (listed as HS72), “synergism”.

These data come from patent US10000469B2, “Heat shock protein 70 (hsp-70) receptor ligands” (Duke University, priority 2014, dated 2018).
